Experimental data: patent US20240124450A1, “Novel SIK Inhibitors” (Pfizer Inc., priority 2022, published 2024)
Where two headings read alike, the source gives them in different places.

How the values were obtained:
[1] = test system: IL10 release from human monocyte derived macrophages stimulated with LPS; assay: SIK macrophage cytokine assay, increase of IL10 release; type: cell-based; conditions: 1 ng/mL LPS, 4 hours, HTRF
Experimental: (§1) Cytokine Assays: SIK Macrophage Assay Cytokine activity is determined by measuring the effect of a test agent on the inhibitory release of the cytokine TNFα and the increasing release of the cytokine IL10 from human monocyte derived macrophages (human macrophages) stimulated with lipopolysaccharide (LPS). At the time of assay, human macrophages (CGPS group Pfizer Groton, CT) are removed from cryopreservation, thawed quickly at 37° C., diluted in thaw medium (OptiMEM—Gibco medium, 10% heat inactivated fetal bovine serum (HIFBS)), and then centrifuged at 200×g for 10 minutes. […] After ˜60 minutes in an incubator at 37° C. in a humidified environment in 5% carbon dioxide the cells are stimulated by the addition of 5 μL of LPS (10 ng/mL; Sigma) and the assay plate is returned to an incubator at 37° C. in a humidified environment in 5% carbon dioxide for 4 hours. […] The final concentration of DMSO in the assay is approximately 0.1%. After 4 hours, the assay plate is removed from the incubator and centrifuged at 1500 rpm for 10 minutes. A portion of the resulting cell supernatant is then used to determine the amount of IL-10 and TNFα in each well. Cytokine measurements are made using human IL-10 and TNFα HTRF assay kits (Perkin Elmer) following the manufacturer's assay protocol.

[2] = molecular target: SIK3 (Homo sapiens (Human), UniProt Q9Y2K2); assay: Pan SIK MS IC50 enzyme assay (SIK3); type: biochemical; conditions: 1 mM ATP, substrate peptide AQT0508, LCMS/MS detection
Experimental: (§2) Enzyme Assay: Pan SIK MS IC50 Assay
(§3) Salt Induced Kinase (SIK) activity is determined by measuring the effect of a test agent on the activity of the appropriate SIK enzyme to phosphorylate its corresponding substrate. […] The phosphorylated substrate product resulting from the kinase reaction is detected by LCMS/MS, and the area under the peak curve correlates with kinase activity. […] The plates are spun at 1000 rpm for 30 seconds to ensure compounds are at the bottom of the well before removing foil covers. 0.15 μL HPE (assay std) and ZPE (DMSO) are added to the ARP using an HP D300 dispenser. Plates are spun again at 1000 rpm for 30 seconds. […] Plates are spun at 1000 rpm for 30 seconds. Plates are then sealed and incubated at RT for 10 minutes. Following incubation, 5 μL of 5× peptide reagent is added with a Multidrop Combi and designated small volume cassette to initiate the kinase reaction. Plates are spun at 1000 rpm for 30 seconds. Plates are then sealed and incubated at RT for 90 minutes. The assay is stopped by the addition of 5 μl of 120 mM EDTA added with a Multidrop Combi and designated small volume cassette (20 mM final concentration). Plates are spun at 1000 rpm for 30 seconds. 10 μl of the final reaction mix from each of the three individual enzyme plates are transferred by a Platemate Plus to the same corresponding 96 well deepwell plate containing 70 μl Water/Methanol (85/15%) for multiplex MS detection ([…]). Using Activity Base (ABase), an idbs data analysis software tool, the reported area ratio unit data is associated to compound, batch and dose information, the data is evaluated for quality, and the percent inhibition of each well is calculated. The data from each Max effect/HPE and Min effect/ZPE control wells are assessed, and outliers are excluded from all further calculations. The mean and standard deviation of the HPE and ZPE are then calculated for each plate, along with the Z Prime. The compound data is converted into % effect, using the average ZPE and HPE controls as 0% and 100% activity, respectively.

[3] = molecular target: SIK2 (Homo sapiens (Human), UniProt Q9H0K1); assay: Pan SIK MS IC50 enzyme assay (SIK2); type: biochemical; conditions: 1 mM ATP, substrate peptide AQT0252, LCMS/MS detection
Experimental: as §2, §3

[4] = molecular target: SIK1 (Homo sapiens (Human), UniProt P57059); assay: Pan SIK MS IC50 enzyme assay (SIK1); type: biochemical; conditions: 1 mM ATP, substrate peptide AQT0868, LCMS/MS detection
Experimental: as §2, §3

[5] = test system: TNFα release from human monocyte derived macrophages stimulated with LPS; assay: SIK macrophage cytokine assay, inhibition of TNFα release; type: cell-based; conditions: 1 ng/mL LPS, 4 hours, HTRF, read-out: TNFa IC50
Experimental: as §1

Sequence of SIK2 (Q9H0K1 whole entry, species assumed): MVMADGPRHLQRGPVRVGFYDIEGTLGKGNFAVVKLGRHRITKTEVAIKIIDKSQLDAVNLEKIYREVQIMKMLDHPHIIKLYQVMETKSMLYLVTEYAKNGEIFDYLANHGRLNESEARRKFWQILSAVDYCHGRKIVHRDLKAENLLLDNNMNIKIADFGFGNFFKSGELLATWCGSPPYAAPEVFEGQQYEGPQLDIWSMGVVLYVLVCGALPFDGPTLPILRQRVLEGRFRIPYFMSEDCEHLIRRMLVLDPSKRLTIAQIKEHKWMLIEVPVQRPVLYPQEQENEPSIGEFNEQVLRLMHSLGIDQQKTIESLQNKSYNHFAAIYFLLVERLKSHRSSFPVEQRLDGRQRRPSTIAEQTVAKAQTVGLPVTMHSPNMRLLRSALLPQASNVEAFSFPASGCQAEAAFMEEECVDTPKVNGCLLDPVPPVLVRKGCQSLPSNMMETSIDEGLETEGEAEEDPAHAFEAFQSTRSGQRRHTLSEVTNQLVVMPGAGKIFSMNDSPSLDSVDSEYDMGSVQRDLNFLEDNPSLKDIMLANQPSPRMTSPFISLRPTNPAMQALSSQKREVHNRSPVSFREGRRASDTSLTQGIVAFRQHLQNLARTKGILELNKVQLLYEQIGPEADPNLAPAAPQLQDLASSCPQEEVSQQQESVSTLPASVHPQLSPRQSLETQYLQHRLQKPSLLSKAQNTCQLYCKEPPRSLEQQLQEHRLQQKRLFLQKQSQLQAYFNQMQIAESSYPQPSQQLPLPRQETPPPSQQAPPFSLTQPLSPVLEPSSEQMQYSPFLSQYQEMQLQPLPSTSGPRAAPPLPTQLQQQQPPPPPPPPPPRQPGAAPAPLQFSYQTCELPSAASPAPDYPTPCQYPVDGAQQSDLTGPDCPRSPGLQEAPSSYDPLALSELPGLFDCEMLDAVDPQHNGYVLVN
Sequence of SIK1 (P57059 whole entry, species assumed): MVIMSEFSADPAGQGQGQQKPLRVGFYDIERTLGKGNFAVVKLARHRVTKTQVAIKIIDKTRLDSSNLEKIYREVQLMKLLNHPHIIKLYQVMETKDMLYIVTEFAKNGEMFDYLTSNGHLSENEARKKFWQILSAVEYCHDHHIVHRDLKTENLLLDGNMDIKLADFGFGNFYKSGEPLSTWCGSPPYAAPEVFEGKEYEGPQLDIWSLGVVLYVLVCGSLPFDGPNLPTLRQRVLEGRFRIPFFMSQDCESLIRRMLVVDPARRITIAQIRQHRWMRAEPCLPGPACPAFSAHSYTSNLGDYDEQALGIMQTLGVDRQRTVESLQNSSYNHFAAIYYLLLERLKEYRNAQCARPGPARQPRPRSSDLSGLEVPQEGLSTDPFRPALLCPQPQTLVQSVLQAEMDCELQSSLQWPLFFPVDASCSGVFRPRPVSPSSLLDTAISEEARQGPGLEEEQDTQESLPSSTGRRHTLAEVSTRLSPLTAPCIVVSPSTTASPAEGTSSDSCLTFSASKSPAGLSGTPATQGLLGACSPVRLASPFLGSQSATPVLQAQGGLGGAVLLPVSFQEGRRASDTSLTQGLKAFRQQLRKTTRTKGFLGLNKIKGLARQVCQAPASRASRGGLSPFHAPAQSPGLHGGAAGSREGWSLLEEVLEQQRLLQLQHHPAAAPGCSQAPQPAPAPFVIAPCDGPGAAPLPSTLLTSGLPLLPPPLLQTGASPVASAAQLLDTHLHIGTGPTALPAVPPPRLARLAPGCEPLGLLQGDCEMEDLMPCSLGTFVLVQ
Sequence of SIK3 (Q9Y2K2 whole entry, species assumed): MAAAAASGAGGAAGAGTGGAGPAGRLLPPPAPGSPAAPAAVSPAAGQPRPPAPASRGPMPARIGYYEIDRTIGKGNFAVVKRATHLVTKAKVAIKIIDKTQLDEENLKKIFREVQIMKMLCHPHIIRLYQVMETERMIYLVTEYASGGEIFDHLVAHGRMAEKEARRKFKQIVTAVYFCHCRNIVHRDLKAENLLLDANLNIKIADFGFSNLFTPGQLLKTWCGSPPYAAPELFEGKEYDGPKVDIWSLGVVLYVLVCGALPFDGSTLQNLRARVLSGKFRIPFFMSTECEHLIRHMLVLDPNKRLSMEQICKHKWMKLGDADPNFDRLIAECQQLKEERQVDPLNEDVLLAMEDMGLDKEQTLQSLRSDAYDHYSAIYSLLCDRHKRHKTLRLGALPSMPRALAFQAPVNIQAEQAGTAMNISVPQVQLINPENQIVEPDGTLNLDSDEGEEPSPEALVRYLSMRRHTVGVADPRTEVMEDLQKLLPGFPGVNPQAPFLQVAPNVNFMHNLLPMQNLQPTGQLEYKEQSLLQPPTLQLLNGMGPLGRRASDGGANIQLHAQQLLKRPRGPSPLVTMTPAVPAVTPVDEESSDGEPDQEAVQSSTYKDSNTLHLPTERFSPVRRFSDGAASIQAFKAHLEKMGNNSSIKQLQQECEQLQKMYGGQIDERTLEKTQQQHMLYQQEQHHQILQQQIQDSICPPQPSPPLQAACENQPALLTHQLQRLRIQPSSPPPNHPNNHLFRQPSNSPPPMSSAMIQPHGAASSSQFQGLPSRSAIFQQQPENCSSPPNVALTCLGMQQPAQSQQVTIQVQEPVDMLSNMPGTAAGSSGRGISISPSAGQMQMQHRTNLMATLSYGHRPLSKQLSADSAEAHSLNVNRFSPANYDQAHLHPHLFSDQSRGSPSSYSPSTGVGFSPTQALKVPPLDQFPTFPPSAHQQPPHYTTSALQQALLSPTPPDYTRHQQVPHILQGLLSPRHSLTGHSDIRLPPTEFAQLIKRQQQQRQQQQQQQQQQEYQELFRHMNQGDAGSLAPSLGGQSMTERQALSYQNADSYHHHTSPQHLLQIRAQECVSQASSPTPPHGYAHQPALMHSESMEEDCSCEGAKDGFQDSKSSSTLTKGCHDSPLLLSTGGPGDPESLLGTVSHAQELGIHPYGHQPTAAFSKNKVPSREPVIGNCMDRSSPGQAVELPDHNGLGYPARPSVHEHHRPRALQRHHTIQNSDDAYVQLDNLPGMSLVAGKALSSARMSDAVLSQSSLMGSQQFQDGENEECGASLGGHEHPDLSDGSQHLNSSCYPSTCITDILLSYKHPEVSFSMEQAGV

IC50 [2]	IC50 [3]	IC50 [4]	EC50 ([1]; Macrophage)	IC50 ([5]; Macrophage)	Compound	EC50 [1]	IC50 [5]
–	–	–	12 nM	5.3 nM	CC[C@@H]1CCC[C@@]1(N)COc1cc(-c2cnc3cccc(OC)n23)cc(SC)c1C#N (mixture of isomers) [Example 9, 2-(((1S,2R)-1-Amino-2-ethylcyclopentyl)methoxy)-4-(5-methoxyimidazo[1,2-a]pyridin-3-yl)-6-(methylthio)benzonitrile and 2-(((1R,2S)-1-amino-2-ethylcyclopentyl)methoxy)-4-(5-methoxyimidazo[1,2-a]pyridin-3-yl)-6-(methylthio)benzonitrile]	–	–
–	–	–	67 nM	20.1 nM	CSc1cc(-c2cnc3cccc(C#N)n23)cc(OC[C@@]2(N)CCC(F)(F)C2)c1C#N (mixture of isomers) [Example 12, (R)-3-(3-((1-Amino-3,3-difluorocyclopentyl)methoxy)-4-cyano-5-(methylthio)phenyl)imidazo[1,2-a]pyridine-5-carbonitrile and (S)-3-(3-((1-amino-3,3-difluorocyclopentyl)methoxy)-4-cyano-5-(methylthio)phenyl)imidazo[1,2-a]pyridine-5-carbonitrile]	–	–
1.2 nM	1.5 nM	0.6 nM	45 nM	13.7 nM	CSc1cc(-c2cnc3cccc(C#N)n23)cc(OC[C@@]2(N)CCCC(C)(C)C2)c1C#N (mixture of isomers) [Example 14, (R)-3-(3-((1-Amino-3,3-dimethylcyclohexyl)methoxy)-4-cyano-5-(methylthio)phenyl)imidazo[1,2-a]pyridine-5-carbonitrile and (S)-3-(3-((1-amino-3,3-dimethylcyclohexyl)methoxy)-4-cyano-5-(methylthio)phenyl)imidazo[1,2-a]pyridine-5-carbonitrile]	–	–
5.9 nM	1.3 nM	1.6 nM	357 nM	32.4 nM	CSc1cc(-c2cnc3ccccn23)cc(OC[C@]2(N)CCSC2)c1C#N (mixture of isomers) [Example 22, (R)-2-((3-Aminotetrahydrothiophen-3-yl)methoxy)-4-(imidazo[1,2-a]pyridin-3-yl)-6-(methylthio)benzonitrile and (S)-2-((3-Aminotetrahydrothiophen-3-yl)methoxy)-4-(imidazo[1,2-a]pyridin-3-yl)-6-(methylthio)benzonitrile]	–	–
5.3 nM	0.9 nM	2.3 nM	177 nM	15.6 nM	CSc1cc(-c2cnc3ccccn23)cc(OC[C@@]2(N)CCC(F)(F)C2)c1C#N (mixture of isomers) [Example 25, (R)-2-((1-Amino-3,3-difluorocyclopentyl)methoxy)-4-(imidazo[1,2-a]pyridin-3-yl)-6-(methylthio)benzonitrile and (S)-2-((1-amino-3,3-difluorocyclopentyl)methoxy)-4-(imidazo[1,2-a]pyridin-3-yl)-6-(methylthio)benzonitrile]	–	–
23.4 nM	9.9 nM	10.9 nM	–	–	CSc1cc(-c2cnc3ccccn23)cc(OC[C@@]2(N)CCC[C@H](C(F)(F)F)C2)c1C#N.CSc1cc(-c2cnc3ccccn23)cc(OC[C@]2(N)CCC[C@@H](C(F)(F)F)C2)c1C#N (mixture of isomers) [Example 33B, 2-(((1R,3S)-1-Amino-3-(trifluoromethyl)cyclohexyl)methoxy)-4-(imidazo[1,2-a]pyridin-3-yl)-6-(methylthio)benzonitrile and 2-(((1S,3R)-1-amino-3-(trifluoromethyl)cyclohexyl)methoxy)-4-(imidazo[1,2-a]pyridin-3-yl)-6-(methylthio)benzonitrile]	338 nM	258 nM
1.8 nM	0.8 nM	0.5 nM	5 nM	1.5 nM	CC[C@@H]1CCC[C@@]1(N)COc1cc(-c2cnc3cccc(C#N)n23)cc(SC)c1C#N (racemic) [Example 7, 3-(3-(((1S,2R)-1-Amino-2-ethylcyclopentyl)methoxy)-4-cyano-5-(methylthio)phenyl)imidazo[1,2-a]pyridine-5-carbonitrile and 3-(3-(((1R,2S)-1-amino-2-ethylcyclopentyl)methoxy)-4-cyano-5-(methylthio)phenyl)imidazo[1,2-a]pyridine-5-carbonitrile]	–	–
1 nM	0.6 nM	0.1 nM	5 nM	1.1 nM	CC[C@H]1CCC[C@@](N)(COc2cc(-c3cnc4cccc(C#N)n34)cc(SC)c2C#N)C1 (racemic) [Example 18, 3-(3-(((1S,3S)-1-Amino-3-ethylcyclohexyl)methoxy)-4-cyano-5-(methylthio)phenyl)imidazo[1,2-a]pyridine-5-carbonitrile and 3-(3-(((1R,3R)-1-amino-3-ethylcyclohexyl)methoxy)-4-cyano-5-(methylthio)phenyl)imidazo[1,2-a]pyridine-5-carbonitrile]	–	–
5.1 nM	2.5 nM	3.3 nM	142 nM	25.8 nM	CSc1cc(-c2cnc3cccc(C#N)n23)cc(OCC2(N)CCSC2)c1C#N (racemic) [Example 27, (R)-3-(3-((3-aminotetrahydrothiophen-3-yl)methoxy)-4-cyano-5-(methylthio)phenyl)imidazo[1,2-a]pyridine-5-carbonitrile and (6)-3-(3-(((3-aminotetrahydrothiophen-3-yl)methoxy)-4-cyano-5-(methylthio)phenyl)imidazo[1,2-a]pyridine-5-carbonitrile]	–	–
2.2 nM	1 nM	0.6 nM	34 nM	13.9 nM	CSc1cc(-c2cnc3ccccn23)cc(OC[C@@]2(N)CCC[C@@H](C(F)(F)F)C2)c1C#N (racemic) [Example 33A, 2-(((1S,3S)-1-Amino-3-(trifluoromethyl)cyclohexyl)methoxy)-4-(imidazo[1,2-a]pyridin-3-yl)-6-(methylthio)benzonitrile and 2-(((1R,3R)-1-amino-3-(trifluoromethyl)cyclohexyl)methoxy)-4-(imidazo[1,2-a]pyridin-3-yl)-6-(methylthio)benzonitrile]	–	–
–	–	–	14 nM	4.8 nM	CC[C@@H]1CCC[C@](N)(COc2cc(-c3cnc4cccc(OC)n34)cc(OC)c2C#N)C1 [Example 16, 2-(((1R,3R)-1-Amino-3-ethylcyclohexyl)methoxy)-6-methoxy-4-(5-methoxyimidazo[1,2-a]pyridin-3-yl)benzonitrile and 2-(((16,36)-1-Amino-3-ethylcyclohexyl)methoxy)-6-methoxy-4-(5-methoxyimidazo[1,2-a]pyridin-3-yl)benzonitrile]	–	–

Compound	IC50 [2]	IC50 [3]	IC50 [4]	EC50 ([1]; Macrophage)	IC50 ([5]; Macrophage)	EC50 [1]	IC50 [5]
3-(3-((1-Aminocyclopentyl)methoxy)-4-cyano-5-(methylthio)phenyl)pyrazolo[1,5-a]pyridine-4-carbonitrile [Example 37]	0.9 nM	0.4 nM	0.3 nM	–	–	27 nM	3.9 nM
COCC1CCC[C@@](N)(COc2cc(-c3cnc4ccccn34)cc(SC)c2C#N)C1 (mixture of isomers) [Example 31, 2-(((1S)-1-Amino-3-(methoxymethyl)cyclohexyl)methoxy)-4-(imidazo[1,2-a]pyridin-3-yl)-6-(methylthio)benzonitrile and 2-(((1R)-1-amino-3-(methoxymethyl)-cyclohexyl)methoxy)-4-(imidazo[1,2-a]pyridin-3-yl)-6-(methylthio)benzonitrile]	4.8 nM	1.6 nM	0.7 nM	–	–	36 nM	13.8 nM
